Literature values, collected in patent publication US20090099301A1, “MOLECULAR IMPRINTINGS FOR RECOGNITION IN AQUEOUS MEDIA, METHODS FOR PREPARING SAME AND USES THEREOF” (POLYINTELL, priority 2006, published 2009).

Conditions: basic medium (pH 11)

solubility in water: insoluble
SMILES: CC(C)NCC(O)COc1cccc2ccccc12 (stereo not shown) [propranolol]
